According to paper PMC6401633, “Evidence for Effective Multiple K^+-Current Inhibitions by Tolvaptan, a Non-peptide Antagonist of Vasopressin V2 Receptor” (Frontiers in Pharmacology, 2019):

Molecular target: T1, large-conductance Ca2+-activated K+ (BKCa) channel (Rattus norvegicus, UniProt Q62976)
T1 construct: gene Kcnma1; native channel in inside-out membrane patches of GH3 cells
Assay: single-channel patch clamp, inside-out; open probability […] to […] at […], no significant change at […]
Format: cell-based

T1 sequence (Q62976 whole entry): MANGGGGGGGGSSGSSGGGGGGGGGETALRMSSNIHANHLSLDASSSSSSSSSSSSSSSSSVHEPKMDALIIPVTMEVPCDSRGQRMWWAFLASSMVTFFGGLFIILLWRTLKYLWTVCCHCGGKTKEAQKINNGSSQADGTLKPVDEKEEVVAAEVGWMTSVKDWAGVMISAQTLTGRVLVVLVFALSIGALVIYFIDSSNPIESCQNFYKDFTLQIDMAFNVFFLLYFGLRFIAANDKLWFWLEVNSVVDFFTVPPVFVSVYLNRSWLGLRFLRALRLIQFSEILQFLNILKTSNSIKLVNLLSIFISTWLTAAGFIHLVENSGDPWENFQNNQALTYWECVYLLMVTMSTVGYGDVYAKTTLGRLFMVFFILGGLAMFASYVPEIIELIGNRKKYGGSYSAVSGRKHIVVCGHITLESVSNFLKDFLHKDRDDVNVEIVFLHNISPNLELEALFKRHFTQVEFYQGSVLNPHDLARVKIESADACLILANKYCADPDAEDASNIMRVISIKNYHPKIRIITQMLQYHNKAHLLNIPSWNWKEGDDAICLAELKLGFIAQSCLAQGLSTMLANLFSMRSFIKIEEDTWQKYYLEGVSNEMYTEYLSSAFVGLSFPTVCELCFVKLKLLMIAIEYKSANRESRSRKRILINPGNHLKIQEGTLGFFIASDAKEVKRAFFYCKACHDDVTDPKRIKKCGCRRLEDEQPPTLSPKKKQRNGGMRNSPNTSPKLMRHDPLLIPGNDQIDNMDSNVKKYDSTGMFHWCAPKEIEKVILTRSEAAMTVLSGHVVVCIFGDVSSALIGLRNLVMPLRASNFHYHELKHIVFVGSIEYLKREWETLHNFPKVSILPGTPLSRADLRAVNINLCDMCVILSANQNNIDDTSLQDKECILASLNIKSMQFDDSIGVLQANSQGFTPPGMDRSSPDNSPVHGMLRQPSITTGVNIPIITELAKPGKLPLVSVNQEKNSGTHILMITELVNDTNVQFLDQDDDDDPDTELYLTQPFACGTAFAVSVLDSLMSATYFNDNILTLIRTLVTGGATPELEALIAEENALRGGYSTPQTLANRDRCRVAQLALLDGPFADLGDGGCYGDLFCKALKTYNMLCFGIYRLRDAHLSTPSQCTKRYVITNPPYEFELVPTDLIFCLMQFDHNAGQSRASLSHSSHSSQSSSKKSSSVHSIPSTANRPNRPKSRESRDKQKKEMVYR

Cc1ccccc1C(=O)Nc1ccc(C(=O)N2CCCC(O)c3cc(Cl)ccc32)c(C)c1 (stereo not shown) [TLV, N-[4-[(7-chloro-2,3,4,5-tetrahydro-5-hydroxy-1H-1-benzazepin-1-yl)carbonyl]-3-methylphenyl]-2-methylbenzamide]
single-channel patch clamp, inside-out; open probability 0.0191 to 0.0143 at 30: 30 µM
